Experimental data as given in ChEMBL document CHEMBL5131529, “KRAS Inhibitors and Target Engagement Technology: From Undruggable to Druggable Targets in Cancer Therapeutics” (ACS Med Chem Lett, 2022).

What was measured:
GTPase KRas [1] = target: T1, GTPase KRas (Homo sapiens, UniProt P01116, G12C); experiment: Inhibition of KRAS G12C mutant in human MIA PaCa-2 cells assessed as reduction in ERK phosphorylation incubated for 2 to 4 hrs by HTRF assay; assay type: cell-based
GTPase KRas [2] = target: T1, GTPase KRas; experiment: Inhibition of BODIPY loaded KRAS G12C mutant (unknown origin) assessed as inhibition of GDP-GTP exchange rate in presence of SOS1/GppNHp incubated for 2 hr by BODIPY fluorescence assay

T1 sequence (P01116 whole entry G12C): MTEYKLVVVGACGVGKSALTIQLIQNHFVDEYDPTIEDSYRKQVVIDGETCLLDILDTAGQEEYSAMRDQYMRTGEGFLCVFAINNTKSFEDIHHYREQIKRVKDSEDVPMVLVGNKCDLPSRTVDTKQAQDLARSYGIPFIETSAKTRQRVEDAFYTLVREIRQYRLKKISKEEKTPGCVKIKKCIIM

| Compound | IC50 (GTPase KRas [1]) [µM] | IC50 (GTPase KRas [2]) [µM] | IC50 (GTPase KRas [1]; mia paca-2) [µM] |
| --- | --- | --- | --- |
| C=Cc1ncc2n1CCN(c1nc(OCCN3CCOCC3)nc3c(F)c(-c4cc(O)cc5ccccc45)c(Cl)cc13)C2 | 5 | 0.1 | – |
| C=Cc1ncc2n1CCN(c1nc(=O)n(-c3c(C)ccnc3C(C)C)c3nc(-c4c(O)cccc4F)c(F)cc13)C2 | 5 | 0.1 | 5 |
| C=Cc1ncc2n1CCN(c1nc(OCC3CCCN3C)nc3c(F)c(-c4c(C)ccc5[nH]ncc45)c(Cl)cc13)C2 (stereo not drawn) | 5 | 0.1 | – |
| C=Cc1ncc2n1CCN(c1nc(OC3CCCN(C)C3)nc3c(F)c(-c4cc(O)cc5ccccc45)c(Cl)cc13)C2 (stereo not drawn) | 5 | 0.1 | – |
| C=Cc1ncc2n1CCN(c1nc(OC3CCN(C)CC3)nc3c(F)c(-c4cc(O)cc5ccccc45)c(Cl)cc13)C2 | 5 | 0.1 | – |
| C=Cc1ncc2n1CCN(c1nc(OCC3CCCN3C)nc3c(F)c(-c4c(O)cccc4F)c(Cl)cc13)C2 (stereo not drawn) | 5 | 0.1 | – |
| C=Cc1ncc2n1CCN(c1nc(OC[C@@H]3CCCN3C)nc3c(F)c(-c4cc(O)cc5ccccc45)c(Cl)cc13)C2 | 1 | 0.1 | – |
| C=Cc1ncc2n1CCN(c1nc(=O)n(C(C)C)c3nc(-c4c(O)cccc4F)c(F)cc13)C2 | 5 | 0.1 | – |
| C=Cc1ncc2n1CCN(c1nc(OCC3CCCN3C)nc3c(F)c(-c4cc(O)cc5ccccc45)c(Cl)cc13)C2 (stereo not drawn) | 1 | ≤ 0.1 | – |
| C=Cc1ncc2n1CCN(c1nc(=O)n(CC3CC3)c3nc(-c4c(O)cccc4F)c(F)cc13)C2 | 5 | 0.1 | – |
| C=Cc1ncc2n1CCN(c1nc(OCCN(C)C)nc3c(F)c(-c4cc(O)cc5ccccc45)c(Cl)cc13)C2 | 1 | 0.1 | – |
